Results: article PMC7747594, “Protease-activated receptor-2 ligands reveal orthosteric and allosteric mechanisms of receptor inhibition” (Communications Biology, 2020)
Where “and” joins values, the source holds several entries; their conditions need not be identical. Identical values can stand only once.

How the values were obtained:
parental 1321N1 cells = experiment: Ca^2+ flux assay, agonist mode, parental 1321N1 cells; type: cell-based; design: Ca2+ response (Fig 2c), individual replicate values: unit not given here; conditions: for Ca2+ response (Fig 2c), individual replicate values: control
Experimental: Cells were loaded with Fluo-8 NW calcium dye (AAT Bioquest) for 30 min at 37 °C before compounds in Hank’s balanced salt solution (HBSS, ThermoFisher Scientific) with 20 mM HEPES (ThermoFisher Scientific), 0.1% bovine serum albumin (BSA, Sigma) and 0.5% DMSO were added and simultaneously evaluated for changes in intracellular [Ca^2+] using FLIPR TETRA (Molecular Devices) to detect agonism. For each concentration, the difference between the maximum peak Ca^2+ response and baseline response is reported. […] Antagonism experiments were also carried out on 1321N1-PAR2[WT], 1321N1-PAR2[F154A], and 1321N1-PAR2[G157C] as described. Experiments with trypsin in 1321N1-hPAR2 cells were performed in the presence of 1 µM Vorapaxar (Chemtronica) to remove any interference of PAR1 activity. […] Antagonism experiments for CHO-hPAR2 and HT-29 cells were performed in 96-well plates at 30,000 cells/well. Cells were loaded with Fluo-3 AM calcium dye (Sigma-Aldrich) for 60 min at 37 °C in HBSS with 1% FBS, 0.2% pluronic acid, 20 mM HEPES and 2.5 mM probenecid prior to the addition of antagonist. The antagonist was pre-incubated for 60 min at 37 °C followed by the addition of bovine trypsin (30 nM) at EC80. Intracellular [Ca^2+] flux was measured using FLIPR TETRA (Molecular Devices) and the difference between the maximum peak Ca^2+ response and baseline response is reported.

PAR2[F154A], PAR2[G157C] = experiment: Ca^2+ flux assay, inhibition of trypsin in 1321N1 cells transiently transfected with PAR2 [WT], [F154A] or [G157C]; type: cell-based, human; conditions: [F154A and G157C], monophasic
Experimental: Cell culture reagents were purchased from ThermoFisher Scientific unless otherwise stated. The parental 1321N1 cell line was obtained from ECACC. 1321N1 cells, stably expressing the human PAR2 receptor, (1321N1-hPAR2) were routinely cultured in Dulbecco’s Modified Eagle Medium (DMEM) supplemented with GlutaMax-1 containing 10% fetal bovine serum (FBS) and G418 (600 µg ml^−1). U2OS cells, stably expressing human PAR2 (U2OS-hPAR2, 93-0235C3, DiscoverX/Eurofins) were routinely cultured in McCoy’s 5A media containing 10% FBS, G418 (500 µg ml^−1) and Hygromycin B (250 µg ml^−1). Rodent PAR2 was assessed in rat KNRK cells (ATCC) cultured in DMEM with 10% FBS supplemented with 2 mM L-Glutamine. Human PAR2 was assessed in HT-29 cells (ECACC) cultured in DMEM with 10% FBS supplemented with penicillin (50 U ml^−1) and streptomycin (50 µg ml^−1). […]
For evaluation of Ca^2+ mobilisation, 1321N1-hPAR2 cells were seeded in 384-well CellBIND plates (Corning) at 4000 cells per well in DMEM containing 10% FBS and incubated for 18–24 hours at 37 °C, 5% CO2 and 95% humidity. […] Inhibition of Ca^2+ release on rat PAR2 was measured in the same way using 10 000 KNRK cells per well seeded in poly-D-lysine coated 384-well plates (Greiner), 30 min preincubation with the compound before activation of PAR2 with EC80 of SLIGRL-NH2 (120 µM) and real-time detection of Ca^2+. […]

inhibition of trypsin-induced PAR2 activation at mutant receptors pIC50 (PAR2[F154A], PAR2[G157C]) | Structure (SMILES) | Ca^2+ mobilisation in parental 1321N1 cells (parental 1321N1 cells) | Ca2+ response (Fig 2c), individual replicate values (parental 1321N1 cells; [compound],M -4.30103) | Ca2+ response (Fig 2c), individual replicate values (parental 1321N1 cells; [compound],M -4.77815) | Ca2+ response (Fig 2c), individual replicate values (parental 1321N1 cells; [compound],M -5.25527) | Ca2+ response (Fig 2c), individual replicate values (parental 1321N1 cells; [compound],M -5.73239) | Ca2+ response (Fig 2c), individual replicate values (parental 1321N1 cells; [compound],M -6.20952) | Ca2+ response (Fig 2c), individual replicate values (parental 1321N1 cells; [compound],M -6.68664) | Ca2+ response (Fig 2c), individual replicate values (parental 1321N1 cells; [compound],M -7.16376) | Ca2+ response (Fig 2c), individual replicate values (parental 1321N1 cells; [compound],M -7.64088) | Ca2+ response (Fig 2c), individual replicate values (parental 1321N1 cells; [compound],M -8.118) | Ca2+ response (Fig 2c), individual replicate values (parental 1321N1 cells; [compound],M -8.59512)
 | CNC(=O)[C@H]1CC[C@@H](NC(=O)[C@H](CC2CCCCC2)NC(=O)c2cn(Cc3ccccc3)nn2)c2ccccc21 [AZ2429] | No Ca^2+ mobilisation could be detected | -0.222 and -3.029 and 1.6687 and -8.186 | -2.571 and -2.17 and -0.3366 and -1.253 | 2.7 and 1.783 and -0.795 and 0.5801 | 1.6114 and 0.4655 and 2.528 and 1.21 | -1.884 and -0.222 and -1.998 and 1.6114 | 5.507 and 2.986 and 0.6947 and 2.299 | 5.851 and 0.8093 and -0.4512 and 3.674 | -0.2793 and 2.6427 and 2.471 and 0.06446 | -2.571 and 1.726 and 3.502 and 0.5801 | -3.717 and -6.009 and -11.1079 and -4.175
6 | C[C@@H](C1CCCCC1)n1c(-c2cc3c(cc2Br)OCO3)nc2cc(C(=O)Nc3ccc(C#N)cc3)ccc21 [AZ3451] |  |  |  |  |  |  |  |  |  |  | 
